Experimental data from patent US8722674B2, “1,3,5-triazine-2,4,6-triamine compound or pharmaceutical acceptable salt thereof, and pharmaceutical composition comprising the same” (Hanall Biopharma Co., Ltd., priority 2007, dated 2014).
Counter-ions that a name gives are not always drawn.

Tests used:
[1] = test system: HepG2 cells; test: Measurement of cholesterol synthesis ability (Amplex red fluorescence); assay type: cell-based; settings: HepG2 cells, 24 h treatment, lower is better; for activity at 250 µM / activity at 100 µM: Homo sapiens, read-out: cholesterol synthesis ability, % control
From the text: (§1) Metformin that is widely used in type 2 diabetic patients inhibits the formation of glucose, the synthesis of cholesterol and triglyceride in liver cells and promote the absorption of glucose from blood vessels in the muscle cells. […] In the case of the ability to form cholesterol, triglyceride and glucose, the lower the numerical value, the better the effect. Numerical values for a control group become reference values.
(§2) As a hepatic cell model, HepG2 cells were used to measure cholesterol synthesis inhibitory ability, which is the important function of AMPK. The hepatic cell model HepG2 cells were cultured in 1% serum-containing media for 24 hours, and then treated with each of the compounds for 24 hours. Then, the cells were disrupted with lysis buffer (0.1 M potassium phosphate, pH 7.4, 0.05 M NaCl, 5 mM cholic acid, 0.1% Triton X-100). To the disrupted cells, the same volume of a reaction solution (2 U/ml cholesterol oxidizing agent, 2 U/ml peroxidase, 0.2 U/ml cholesterol esterase, and 300 μM Amplex red as a fluorescent factor) was added and allowed to react at 37° C. for 30 minutes. After completion of the reaction, the cells were measured with a fluorometer at a wavelength of 560/590 nm (ex/em), thus quantifying the amount of […] formed in the cells. A lower measurement value means an increased lipid production inhibitory ability.

[2] = test system: HepG2 cells; test: Measurement of gluconeogenesis (14C-lactate); assay type: cell-based; settings: 24 h treatment, lower is better; for activity at 500 µM / activity at 200 µM: Homo sapiens, read-out: gluconeogenesis (glucose synthesis ability), % control
Protocol: as §1
As a hepatic cell model, HepG2 cells were cultured in 10% serum-containing high glucose media, and then treated with each of the compounds for 24 hours. Then, the cells were treated with 0.5 uCi 14C-lactate and 10 mM L-lactate, and cultured for 4 hours. After cultivation, the media of the cells were removed, and the cells were washed with PBS, treated with 0.1N NaOH and left to stand at room temperature for 1 hour. Then, the cells were neutralized with 1N HCl, and the amount of glucose formed in the cells was measured with a liquid scintillation counter. […] A lower measurement value means a stronger blood glucose lowering activity.

[3] = test system: C2C12 cells; test: Measurement of glucose absorption (3H-deoxy-glucose); assay type: cell-based; settings: differentiated C2C12 muscle cells, with 1 μM insulin 24 h, higher is better; for activity at 250 µM / activity at 200 µM: Mus musculus, read-out: glucose absorption, % control
From the text: as §1
As a muscle cell model, C2C12 cells were induced to differentiate into muscle cells in 2% bovine fetal serum for 6 days. The C2C12 cells which differentiated into muscle cells were treated with each of the compounds in serum-free low glucose media, and then cultured with 1 μM of insulin for 24 hours. After cultivation, the cells were treated with 1 μCi 3H-deoxy-glucose and 10 μM deoxy-glucose at 37° C. for 15 minutes. After treatment, the media were removed, and the cells were washed twice with PBS. The washed cells were treated with 0.1 N NaOH and neutralized with 1N HCl. The amount of glucose absorbed into the cells was measured with a liquid scintillation counter. The effect of the compounds was determined by selecting a compound showing an absorption effect of at least 200%, dividing the absorption effect by the average percent of the control group, and then multiplying the divided value by […]. A higher measurement value means a stronger ability to reduce insulin resistance.

[4] = test system: HepG2 cells; test: Measurement of triglyceride (Amplex red fluorescence); assay type: cell-based; settings: 24 h treatment, lower is better; for activity at 250 µM / activity at 100 µM: Homo sapiens, read-out: triglyceride synthesis ability, % control
Protocol: as §1
as §2, with “model,” for “model, HepG2 cells were used to measure cholesterol synthesis inhibitory ability, which is the important function of AMPK. The hepatic cell model”, “(0.1M” for “(0.1 M”, “(0.76” for “(2”, “glycerol kinase, […] peroxidase, 22.2 U/ml glycerol” for “cholesterol”, “agent,” for “agent, 2 U/ml peroxidase, 0.2 U/ml cholesterol esterase,”

| SMILES | melting point [°C] | activity at 250 µM ([1]; 250 uM) [%] | activity at 500 µM ([2]; 500 uM) [%] | activity at 250 µM ([3]; 250 uM) [%] | activity at 250 µM ([4]; 250 uM) [%] | activity at 100 µM ([1]; 100 uM) [%] | activity at 200 µM [2] [%] | activity at 200 µM [3] [%] | activity at 100 µM ([4]; 100 uM) [%] | also measured |
| --- | --- | --- | --- | --- | --- | --- | --- | --- | --- | --- |
| CN(C)c1nc(N)nc(NCc2ccc3c(c2)OCO3)n1 (as salt: HCl) [Example 1, N2-(benzo[d][1,3]dioxol-5-ylmethyl)-N4,N4-dimethyl-1,3,5-triazine-2,4,6-triamine] | 193.7 to 219.6 |  |  |  |  |  |  |  |  |  |
| CN(C)c1nc(N)nc(NCc2ccc3c(c2)OCO3)n1 [Example 1, N2-(benzo[d][1,3]dioxol-5-ylmethyl)-N4,N4-dimethyl-1,3,5-triazine-2,4,6-triamine] |  | 81.1 | 105 | 133 | 103 |  |  |  |  |  |
| CN(C)c1nc(N)nc(Nc2cccc(Br)c2)n1 [Example 2, N2-(3-bromophenyl)-N4,N4-dimethyl-1,3,5-trizaine-2,4,6-triamine] |  |  |  |  |  |  |  |  |  | cholesterol synthesis ability, % control ([1]; 100 uM): 23.15%; gluconeogenesis (glucose synthesis ability), % control ([2]; 100 uM): 51.89%; glucose absorption, % control ([3]; 100 uM): 35.23%; triglyceride synthesis ability, % control ([4]; 100 uM): 19.11% |
| CN(C)c1nc(N)nc(NCCN2CCOCC2)n1 [Example 3, N2,N2-dimethyl-N4-(2-morpholinoethyl)-1,3,5-triazine-2,4,6-triamine] | 138.2 to 141.6 | 113 | 67.6 | 132 | 98 |  |  |  |  |  |
| CN(C)c1nc(N)nc(NCc2cccnc2)n1 [Example 4, N2,N2-dimethyl-N4-(2-pyridine-3-ylmethyl)-1,3,5-triazine-2,4,6-triamine] |  |  |  |  |  |  |  |  |  | cholesterol synthesis ability, % control ([1]; 250 uM): 93.66%; gluconeogenesis (glucose synthesis ability), % control ([2]; 500 uM): 92.14%; glucose absorption, % control ([3]; 250 uM): 143.92%; triglyceride synthesis ability, % control ([4]; 250 uM): 99.48% |
| CN(C)c1nc(N)nc(NCc2ccco2)n1 [Example 5, N2-(furan-2-ylmethyl)-N4,N4-dimethyl-1,3,5-triazine-2,4,6-triamine] | 151.6 to 152 | 77.5 | 68.5 | 142 | 90.2 |  |  |  |  |  |
| Nc1nc(N)nc(NCc2ccc3c(c2)OCO3)n1 [Example 6, N2-(benzo[d][1,3]dioxol-5-ylmethyl)-1,3,5-triazine-2,4,6-triamine] | 140.8 to 142.9 | 92.7 | 82.3 | 114 | 108 |  |  |  |  |  |
| CN(C)c1nc(N)nc(NCCN2CCCCC2)n1 [Example 7, N2,N2-dimethyl-N4-(2-(piperidin-1-yl)ethyl)-1,3,5-triazine-2,4,6-triamine] | 116.6 to 117.2 |  |  |  |  | 97.4 | 101 | 131 | 95.8 |  |
| COc1ccc(CNc2nc(N)nc(N(C)C)n2)cc1O [Example 8, 5-((4-amino-6-(dimethylamino)-1,3,5-triazine-2-ylamino)methyl)-2-methoxyphenol] | 141.4 to 142 |  |  |  |  | 59.1 | 94.8 | 126 | 106 |  |
| CN(C)c1nc(N)nc(NCCCN2CCCC2=O)n1 [Example 9, 1-(3-(4-amino-6-(dimethylamino)-1,3,5-triazin-2-ylamino)propyl)pyrrolidin-2-one] | 176.5 to 177 |  |  |  |  | 93.5 | 110 | 120 | 95.2 |  |
